Source: PubChem BioAssay (NCI)
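Interpolation was linear, between the two tested concentrations surrounding the appropriate level; five concentrations were tested over 48 hours in 96-well plates. GI50 marks 50% less growth. TGI is the concentration that stops growth completely.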

Columns and labels:
Assay in all cases: inhibition of tumour cell growth, NCI panel, 48 h
[1] = test system: COLO 205 colon
[2] = test system: EKVX NSCLC
[3] = test system: HCT-116 colon
[4] = test system: HOP-92 NSCLC
[5] = test system: OVCAR-8 ovarian
[6] = test system: SK-MEL-2 melanoma
[7] = test system: SNB-75 CNS
[8] = test system: UACC-257 melanoma

Compound	GI50 [1]	TGI [1]	GI50 [2]	TGI [2]	GI50 [3]	TGI [3]	GI50 [4]	TGI [4]	GI50 [5]	TGI [5]	GI50 [6]	TGI [6]	GI50 [7]	TGI [7]	GI50 [8]	TGI [8]
C=C(CN1CCc2ccccc2C1)c1ccc(C(=O)Nc2ccc(N)cc2)cc1	22.7 µM	60.6 µM	22.4 µM	> 100 µM	11.9 µM	> 100 µM	0.0854 µM	12.7 µM	22.6 µM	77.7 µM	24.4 µM	> 100 µM	9.87 µM	53.6 µM	20.2 µM	59.7 µM
Cc1ccc2c(=O)c3cccc(CC(=O)O)c3oc2c1C	> 100 µM	> 100 µM	> 100 µM	> 100 µM	> 100 µM	> 100 µM	> 100 µM	> 100 µM	> 100 µM	> 100 µM	> 100 µM	> 100 µM	> 100 µM	> 100 µM	> 100 µM	> 100 µM
O=c1cc(-c2ccccc2)nc2n1CCN2Cc1ccccc1	26.1 µM	68.1 µM	30.5 µM	96.1 µM	31.6 µM	> 100 µM	42.8 µM	> 100 µM	47.2 µM	> 100 µM	20.5 µM	50.5 µM	60.5 µM	> 100 µM	37.1 µM	> 100 µM
CC(C)(O)C1OCC(C2CCC3(C)C4=CCC5C(C)(C)C(O)CCC5(C)C4CCC23C)CC1O (stereo not drawn)		31.5 µM		32.3 µM		27.6 µM		27.6 µM		27.9 µM		48.7 µM		34.6 µM		39.3 µM
Cc1ccc2c(N)c(C(=O)N[C@H]3CCc4cc(N5CC6CCC(C5)N6)ccc4C3)sc2n1	0.383 µM	1.49 µM	0.572 µM	2.34 µM	0.251 µM	3.44 µM	0.642 µM	4.08 µM	0.385 µM	2.83 µM	0.44 µM	1.29 µM	0.355 µM	2.83 µM	0.501 µM	2.84 µM
O=C1C(=O)c2ccccc2C(O)=C1C(CCc1ccccc1)C1=C(O)c2ccccc2C(=O)C1=O		> 100 µM		> 100 µM		> 100 µM		> 100 µM		> 100 µM		> 100 µM		> 100 µM		66.7 µM
O=C1C=Cc2ccccc2/C1=C/c1[nH]c(=O)[nH]c1O	3.59 µM	31.9 µM	2.46 µM	25.4 µM	4.12 µM	18.3 µM	5.75 µM	47.8 µM	9.6 µM	62.5 µM	2.97 µM	8.71 µM	2.14 µM	7.44 µM	2.93 µM	> 100 µM
COc1nc(C)cc2c(=O)n(-c3ccccc3)n(CCCN3CCN(c4ccc(Cl)cc4)CC3)c(=O)c12	> 50 µM	> 50 µM	> 50 µM	> 50 µM	27.5 µM	> 50 µM	10 µM	41.6 µM			> 50 µM	> 50 µM	14.1 µM	47.6 µM		
O=C(C(Br)Br)C(Br)C(Br)c1ccccc1 (stereo not drawn)	1.65 µM	3.59 µM	14.5 µM	43.9 µM	1.83 µM	3.42 µM	6.21 µM	19.8 µM	3.16 µM	> 100 µM	13.7 µM	35.7 µM	19.9 µM	53.4 µM	2.39 µM	7.24 µM
O=C1c2ccccc2-c2c1c1ccccc1c(=O)n2CCCN1CCOCC1	> 100 µM	> 100 µM	22.7 µM	76.4 µM	13.6 µM	31.8 µM	4.81 µM	13 µM	7.26 µM	> 75.2 µM	19.5 µM	50.7 µM	2.98 µM	> 27.7 µM	> 100 µM	> 100 µM
COc1c(O)ccc2c1CN1CCc3cc4c(cc3C1C2)OCO4 (stereo not drawn)		> 100 µM		> 100 µM		> 100 µM		> 100 µM		> 100 µM		> 92.9 µM		65.3 µM		> 77.2 µM
C/C=C(\C)C(=O)O[C@H]1C=CC(=O)O[C@H]1CNC(=O)[C@H](C)O	12.6 µM	29.3 µM	26.2 µM	67.4 µM	13.1 µM	26 µM	14.6 µM	28.9 µM	24.3 µM	65.9 µM	20.1 µM	51 µM	22.3 µM	48.8 µM	17.1 µM	37.6 µM
Cc1cc(S(=O)(=O)Nc2nnc(-c3ccccc3)c(-c3ccccc3)n2)c(SCc2ccccc2)cc1Cl	23.6 µM	48 µM	5.68 µM	25.2 µM	19.8 µM	38.9 µM	18.8 µM	47.1 µM	27.2 µM	89.7 µM			29.4 µM	49 µM	28.5 µM	70.1 µM
